Data published in patent US6338953B1, “Expression of an exogenous gene in a mammalian cell by use of a non-mammalian DNA virus having an altered coat protein” (The General Hospital Corporation, priority 1996, dated 2002).

What was measured:
HepG2 cells [1] = test: Colorimetric (ONPG) β-galactosidase assay of cell extracts; format: cell-based, human
Experimental: Adherent cell lines were seeded one day prior to infection. Cells were exposed to virus in 2 ml of medium for 90 minutes, and then the virus-containing medium was removed and replaced with fresh medium. Mock-infected cells were treated with 2 ml medium lacking the viral inoculum.
To measure expression of the reporter gene in the infected cells, colorimetric assays of β-galactosidase enzymatic activity were performed with standard methods (Norton et al., 1985, Molecular & Cellular Biology 5:281-290). Other conventional methods for measuring β-galactosidase activity could be used in lieu of the methods employed in this example. Cell extracts were prepared at one day post-infection. Cell monolayers were rinsed three times with PBS, scraped from the dish, and collected by low-speed centrifugation. The cell pellets were resuspended in 25 mM Tris pH 7.4/0.1 mM EDTA and then subjected to three cycles of freezing in liquid nitrogen and thawing in a 37° C. water bath. The extracts were then clarified by centrifugation at 14,000×g for 5 minutes. Standard conditions for assaying β-galactosidase activity utilized 0.1 ml of cell extract, 0.8 ml of PM-2 buffer, and 0.2 ml of […] (4 mg/ml) in PM-2 buffer for 10 minutes at 37° C. (Norton et al., 1985, Mol. & Cell. Biol. 5:281-290). The reaction was stopped by the addition of 0.5 ml of 1 M sodium carbonate. The amount of substrate hydrolyzed was detected spectrophotometrically at 420 nm, and β-galactosidase enzymatic activity was calculated with conventional methods (Norton et al., 1985, Mol. & Cell. Biol. 5:281-290). The assay was verified to be linear with respect to extract concentration and time. Extract protein concentrations were determined using the Coomassie Plus protein assay (Pierce) with bovine serum albumin as a standard, and the level of β-galactosidase activity was expressed as units of β-galactosidase activity per mg of protein. Other standard protein assays can be used, if desired.
Baculovirus-mediated Gene Transfer is Inhibited by Lysomotropic Agents: To gain insight into the mechanism by which baculoviruses express an exogenous gene in a mammalian cell, the susceptibility of gene expression to a lysomotropic agent was examined. Like other enveloped viruses, the budded form of AcMNPV normally enters cells via endocytosis, followed by low pH-triggered fusion of the viral envelope with the endosomal membrane, thus allowing escape into the cytoplasm (Blissard et al., 1993, J. Virol. 66:6829-6835; Blissard et al., 1990, Ann. Rev. of Entomol. 35:127-155). To determine whether endosome acidification was necessary for baculovirus-mediated gene transfer into mammalian cells, HepG2 cells were infected with RSV-lacZ AcMNPV in the presence of chloroquine, a lysomotropic agent. HepG2 cells were exposed to AcMNPV virus in media containing or lacking inhibitor for 90 minutes, then the virus-containing media were removed and replaced with fresh media containing or lacking inhibitors as listed.
At one day post-infection, the cells were harvested and extracts were assayed for β-galactosidase activity and protein content. Each value in the table represents the average of three independent assays, with the amount of β-galactosidase produced by the RSV-lacZ AcMNPV virus in the absence of inhibitors assigned a value of 100%. β-galactosidase activity was normalized for protein content of each extract. […]

[2] = system: VGZ3-treated mammalian cells; test: Inhibition of β-galactosidase expression in VGZ3-treated cells; format: cell-based; settings: data not shown
HepG2 cells [3] = format: cell-based, human; settings: moi 100
Rat Hepatocytes = test: Colorimetric (ONPG) β-galactosidase assay of cell extracts; settings: background subtracted

Molecule | effect on de novo expression of β-galactosidase (HepG2 cells [1]; 25 μM continuously present during and after exposure to virus) | effect on β-galactosidase expression (HepG2 cells [1]; added 90 minutes after exposure to the virus) | effect on β-galactosidase expression in VGZ3-treated mammalian cells [2] | inhibition of accumulation of β-galactosidase enzyme activity (HepG2 cells [1]; HepG2 infected with RSV-lacZ virus, drug after infection) | Promoter strength, Hep G2 −butyrate (HepG2 cells [1]; moi 100, 24 hours, mock background subtracted) [Units/mg] | Promoter strength, Hep G2 +butyrate (HepG2 cells [1]; moi 100, sodium butyrate added 2 hours after infection, 24 hours, background subtracted) [Units/mg] | X-gal staining of cells not treated with butyrate (HepG2 cells [3]) | Promoter strength, Rat Hepatocytes −butyrate (Rat Hepatocytes) [Units/mg]
CCN(CC)CCCC(C)Nc1ccnc2cc(Cl)ccc12 (stereo not drawn) [chloroquine] | completely prevented | only partial inhibition | inhibited β-galactosidase expression | – | – | – | – | –
C[C@@H]1C[C@@H]([C@H](O)CC2CC(=O)NC(=O)C2)C(=O)[C@@H](C)C1 [cycloheximide] | – | – | inhibited β-galactosidase expression | more than 90% | – | – | – | –
Albumin | – | – | – | – | 0.0 ± 0.0 | 0.08 ± 0.04 | positively stained cells were detected | 0.15 ± 0.08
